Data taken from patent US20230190848A1 (priority 2021, published 2023).

Legend:
[1] = tested on: calreticulin; test: Calreticulin expression on infected L929 cell membrane; assay type: cell-based; settings: L929 infected with MHV-A59 (FIG. 3)
Description: To determine if the P2Et extract of the invention can inhibit virus infection L929 cells were seeded in 12-well plates at a concentration of […] for well and cultured overnight. Cells were pretreated for 2 h with the P2Et or controls, washed twice with PBS 1× and inoculated with 200 μl of the virus suspension to 0.1, 0.01 or 0.001 MOI in DMEM, 1 h at room temperature in mechanical agitation. The virus inoculum was removed, the cells were treated again with extracts for 6, 12 and 24 h. Supernatants were collected for qPCR and plaque assays. The cells were collected for evaluation of proteins by western blot and ROS assays by flow cytometry.
Previously, we have shown that standardized P2Et extract induces immunogenic cell death (ICD), here the expression of calreticulin, a marker of ICD, was evaluated on the L929 cell membrane infected cells.

[2] = tested on: SARS-CoV-2 virus; settings: cited from earlier work

Row | Compound | expression of calreticulin induced by viral infection on L929 cell surface [1] | suppression of viral activity [2]
1 | CCN(CC)CCCC(C)Nc1ccnc2cc(Cl)ccc12 (stereo not shown) [chloroquine] | decreased | –
2 | O=c1c(O)c(-c2ccc(O)c(O)c2)oc2cc(O)cc(O)c12 [quercetin] | decreased | –
3 | CC(=O)N[C@@H](CS)C(=O)O [NAC, N-Acetylcysteine] | decreased | –
4 | epigallocatechin-zinc gallate [EGCG-Zn^+2] | – | greater than 99%
